According to patent US20050059585A1, “Methionine aminopeptidase-2 inhibitors and methods of use thereof” (Praecis Pharmaceuticals Inc., priority 2000, published 2005):

What was measured:
Test in all cases: tumor cell line panel, SRB growth assay
Format in all cases: cell-based
A498 = conditions: Homo sapiens; A498, Renal, 48 hours
Experimental: (§1) The compound of example 5 was also evaluated against a panel of cancer cell lines (Alley, M.C. et al. […] Cancer Research 48: 589-601; Grever, M. R., et al. (1992) Seminars in Oncology, Vol. 19, No. 6, pp 622-638; Boyd, M. R., and Paull, K. D. (1995) Drug Development Research 34: 91-109). The human tumor cell lines of the cancer screening panel were grown in RPMI 1640 medium containing 5% fetal bovine serum and 2 mM L-glutamine. Cells were inoculated into 96 well microtiter plates in 100 μL at plating densities ranging from 5,000 to 40,000 cells/well depending on the doubling time of individual cell lines. After cell inoculation, the microtiter plates were incubated at 37° C., 5 % CO2, 95 % air and 100 % relative humidity for 24 hours prior to addition of experimental drugs.
(§2) After the 24 hour incubation period, two plates of each cell line were fixed in situ with TCA, to represent a measurement of the cell population for each cell line at the time of drug addition (Tz). Experimental drugs were solubilized in dimethyl sulfoxide at 400-fold the desired final maximum test concentration and stored frozen prior to use. At the time of drug addition, an aliquot of frozen concentrate was thawed and diluted to twice the desired final maximum test concentration with complete medium containing 50 μg/ml gentamicin. Additional four, 10-fold or ½ log serial dilutions were made to provide a total of five drug concentrations plus control. Aliquots of 100 μl of these different drug dilutions were added to the appropriate microtiter wells already containing 100 μl of medium, resulting in the required final drug concentrations.
(§3) Following drug addition, the plates were incubated for an additional 48 hours at 37° C., 5 % CO2, 95 % air, and 100 % relative humidity. For adherent cells, the assay was terminated by the addition of cold TCA. Cells were fixed in situ by the gentle addition of 50 μl of cold 50 % (w/v) TCA (final concentration, 10% TCA) and incubated for 60 minutes at 4° C. The supernatant was discarded, and the plates were washed five times with tap water and air dried. Sulforhodamine B (SRB) solution (100 μl) at 0.4 % (w/v) in 1 % acetic acid were added to each well, and plates were incubated for 10 minutes at room temperature. After staining, unbound dye was removed by washing five times with 1 % acetic acid and the plates were air dried. Bound stain was subsequently solubilized with 10 mM trizma base, and the absorbance was read on an automated plate reader at a wavelength of 515 nm. For suspension of the cells, the methodology used was the same except that the assay was terminated by fixing settled cells at the bottom of the wells by gently adding 50 μl of 80 % TCA (final concentration, 16% TCA). Using the seven absorbance measurements [time zero, (Tz), control growth, (C), and test growth in the presence of drug at the five concentration levels (Ti)], the percentage growth was calculated at each of the drug concentrations levels.
(§4) Percentage growth inhibition was calculated as: [(Ti−Tz)/(C−Tz)]×100 for concentrations for which Ti>/=Tz [(Ti−Tz)/Tz]×100 for concentrations for which Ti<Tz.
(§5) Growth inhibition of 50% (GI50) was calculated from [(Ti−Tz)/(C−Tz)]×100=50, which is the drug concentration resulting in a 50% reduction in the net protein increase (as measured by SRB staining) in control cells during the drug incubation. The G150 was calculated for each of the cell lines if the level of activity is reached; however, if the effect was not reached or is exceeded, the value for that parameter is expressed as greater or less than the maximum (10^−4 M) or minimum (10^−8 M) concentration tested.

SK-MEL-28 = conditions: Homo sapiens; SK-MEL-28, Melanoma, 48 hours
Experimental: as §1, §2, §3, §4, §5

MCF7 = conditions: Homo sapiens; MCF7, Breast, 48 hours
Experimental: as §1, §2, §3, §4, §5

CAKI-1 = conditions: Homo sapiens; CAKI-1, Renal, 48 hours
Experimental: as §1, §2, §3, §4, §5

OVCAR-8 = conditions: Homo sapiens; OVCAR-8, Ovarian, 48 hours
Experimental: as §1, §2, §3, §4, §5

ACHN = conditions: Homo sapiens, Renal, 48 hours
Experimental: as §1, §2, §3, §4, §5

SK-MEL-2 = conditions: Homo sapiens; SK-MEL-2, Melanoma, 48 hours
Experimental: as §1, §2, §3, §4, §5

PC-3 = conditions: Homo sapiens; PC-3, Prostate, 48 hours
Experimental: as §1, §2, §3, §4, §5

RPMI-8226 = conditions: Homo sapiens; RPMI-8226, Leukemia, 48 hours
Experimental: as §1, §2, §3, §4, §5

OVCAR-5 = conditions: Homo sapiens; OVCAR-5, Ovarian, 48 hours
Experimental: as §1, §2, §3, §4, §5

HCT-116 = conditions: Homo sapiens; HCT-116, Colon, 48 hours
Experimental: as §1, §2, §3, §4, §5

OVCAR-3 = conditions: Homo sapiens; OVCAR-3, Ovarian, 48 hours
Experimental: as §1, §2, §3, §4, §5

RXF 393 = conditions: Homo sapiens; RXF 393, Renal, 48 hours
Experimental: as §1, §2, §3, §4, §5

DU-145 = conditions: Homo sapiens; DU-145, Prostate, 48 hours
Experimental: as §1, §2, §3, §4, §5

NCI-H522 = conditions: Homo sapiens; NCI-H522, Non-Small Cell Lung, 48 hours
Experimental: as §1, §2, §3, §4, §5

SW-620 = conditions: Homo sapiens; SW-620, Colon, 48 hours
Experimental: as §1, §2, §3, §4, §5

SK-OV-3 = conditions: Homo sapiens; SK-OV-3, Ovarian, 48 hours
Experimental: as §1, §2, §3, §4, §5

SF-539 = conditions: Homo sapiens; SF-539, CNS, 48 hours
Experimental: as §1, §2, §3, §4, §5

HOP-92 = conditions: Homo sapiens; HOP-92, Non-Small Cell Lung, 48 hours
Experimental: as §1, §2, §3, §4, §5

MOLT-4 = conditions: Homo sapiens; MOLT-4, Leukemia, 48 hours
Experimental: as §1, §2, §3, §4, §5

OVCAR-4 = conditions: Homo sapiens; OVCAR-4, Ovarian, 48 hours
Experimental: as §1, §2, §3, §4, §5

With `CO[C@@H]1[C@H](OC(=O)N[C@@H](C(N)=O)C(C)C)CC[C@]2(CO2)[C@H]1[C@@]1(C)O[C@@H]1CC=C(C)C` [Example 5, (1-Carbamoyl-2-methyl-propyl)-carbamic acid-(3R, 4S, 5S, 6R )-5-methoxy-4-[(2R, 3R)-2-methyl-3-(3-methyl-but-2-enyl)-oxiranyl]-1-oxa-spiro[2.5]oct-6-yl ester] the GI50 (A498) was over 100 µM, the GI50 (SK-MEL-28) was 5.96 µM and the GI50 (MCF7) was 12.4 µM. For the same molecule, the GI50 (CAKI-1) was under 0.01 µM, the GI50 (OVCAR-8) was 18.4 µM and the GI50 (ACHN) was under 0.01 µM. For the same molecule, the GI50 (SK-MEL-2) was over 100 µM, the GI50 (PC-3) was 18 µM and the GI50 (RPMI-8226) was under 0.01 µM. It also gave a GI50 (OVCAR-5) of 0.0135 µM, a GI50 (HCT-116) of under 0.01 µM and a GI50 (OVCAR-3) of 41.8 µM. The GI50 (RXF 393) was 40.2 µM, the GI50 (DU-145) was under 0.01 µM and the GI50 (NCI-H522) was 12.9 µM. For the same molecule, the GI50 (SW-620) was over 100 µM, the GI50 (SK-OV-3) was 7.37 µM and the GI50 (SF-539) was 20.6 µM. For the same molecule, the GI50 (HOP-92) was 33.9 µM, the GI50 (MOLT-4) was 35.6 µM and the GI50 (OVCAR-4) was 36.6 µM.
